Reference: US20070072807A1, “Method of screening compounds” (SmithKline Beecham Corporation & SmithKline Beecham p.l.c., priority 1999, published 2007)
Values belong to the molecule of their own block, whether it stands above or below them. Numbered stars: 1 amine (or outer) side, 2 acyl side, 3 side chain; on linkers, the order of the positions; unused ones are H or OH. Square brackets hold non-standard residues; d marks the D form. Peptide text beside a SMILES is read from it. * marks the point of attachment. Hexanoyl(5S-NH,4S-OH,6-Ph) = O=C(CC[C@H](O)[C@H](Cc1ccccc1)N[*:1])[*:2]; X2 = Nc1ccc2c(c1)Oc1ccccc1C21OC(=O)c2cc(C(=O)*)ccc21; X1 = CC(C)C[C@H](N[*:1])[C@@H](O)CCC(=O)[*:2]

Tests used:
Asp1 [1] = target: T1, Asp1 (Homo sapiens, UniProt Q9Y5Z0); test: Fluorescence Resonance Energy Transfer (FRET) cleavage assay for Asp1; assay type: biochemical
T1 construct: A cDNA fragment encoding Asp1(EP0848062), amino acids 1 to 473; made in house; host or cells: CHO E1A (Chinese hamster ovary)
From the text: Fluorescence Resonsance Energy Transfer (FRET) Cleavage Assay for Asp1
A peptide (X) based on the sequence of the Swedish variant APP beta-site sequence has been doubly labelled for use in a FRET assay. [drawing 2] [drawing 3] This peptide includes the 11 residues spanning the Swedish variant beta-cleavage site (Ile-Ser-Glu-Val-Asn-Leu-Asp-Ala-Glu-Phe-Arg SEQ ID NO:2) with an N-terminal rhodamine green group and C-terminal tetramethylrhodamine group. This would allow cleavage of the intervening peptide sequence by Asp1 to be monitored by energy transfer between the two fluorescent groups.
In practice assays were conducted as follows:
The fluorescent peptide substrate (0.5 uM) was incubated with Asp1-Fc enzyme prepared as described above in a buffer containing 50 mM sodium acetate, 20 mM sodium chloride, 5% glycerol, 0.1% CHAPS (3-[(3-Cholamidopropyl)dimethylammonio]-1-propane-sulphonate), pH 3.8). The assays were started by addition of enzyme (50 nM final concentration) and cleavage monitored on a fluorescent platereader with 485 nm excitation, 538 nm emission. The C-terminal TAMRA group of the peptide acted as effective quencher, thus an increase in rhodamine green intensity was observed upon cleavage.
This assay was used to determine IC50 and Ki values for compounds of interest. […] Asp1 Fluorescence Polarisation Assay.

Asp1 [2] = target: T1, Asp1; test: Asp1 fluorescence polarisation (competition) binding assay
Procedure: A competition assay has also been designed to identify compounds acting at the Asp1 active site. The hydroxyethylene inhibitor (I) has been modified by addition of 5-, 6-rhodamine green to the free N-terminal amine of the compound to create labelled ligand (II). [drawing 5]
The resulting compound was tested experimentally as follows to determine the Kd with Asp1-Fc enzyme, prepared as above.
A three dimensional analysis varying enzyme and ligand (II) was performed. Ligand concentration range was 1, 3, 10, 30 and 100 nM. Enzyme concentration range was from 100 nM down in serial twofold dilutions (11 dilutions+no enzyme control).
Ligand of appropriate concentration was prepared in 5% DMSO. The enzyme solutions were prepared in 2 times (×2) assay buffer (where ×1=50 mM sodium acetate, 20 mM sodium chloride, 5% glycerol, 0.1% CHAPS, pH 3.8). 5 ul of the enzyme solution (of varying concentration) was mixed with 5 ul of the ligand (of varying concentration) in a low volume 384 microtitre plate. The samples were allowed to equilibrate for 15 min before the fluorescence polarisation was read on an LJL ACQUEST platereader.
The Anisotropy values were plotted and the Kd for the tight binding interaction obtained.
Enzyme (at a fixed concentration of 50 nM), ligand (II) (at a fixed concentration of 5.0 nM) and test compound (5 uM down in twofold serial dilutions) were mixed in ×1 assay buffer in a final assay volume of 10 ul and allowed to equilibrate for 3 hrs. The fluorescence polarisation was then read. The experiment was performed in duplicate.

T1 sequence (Q9Y5Z0 with tags, fused parts or gaps limits assumed): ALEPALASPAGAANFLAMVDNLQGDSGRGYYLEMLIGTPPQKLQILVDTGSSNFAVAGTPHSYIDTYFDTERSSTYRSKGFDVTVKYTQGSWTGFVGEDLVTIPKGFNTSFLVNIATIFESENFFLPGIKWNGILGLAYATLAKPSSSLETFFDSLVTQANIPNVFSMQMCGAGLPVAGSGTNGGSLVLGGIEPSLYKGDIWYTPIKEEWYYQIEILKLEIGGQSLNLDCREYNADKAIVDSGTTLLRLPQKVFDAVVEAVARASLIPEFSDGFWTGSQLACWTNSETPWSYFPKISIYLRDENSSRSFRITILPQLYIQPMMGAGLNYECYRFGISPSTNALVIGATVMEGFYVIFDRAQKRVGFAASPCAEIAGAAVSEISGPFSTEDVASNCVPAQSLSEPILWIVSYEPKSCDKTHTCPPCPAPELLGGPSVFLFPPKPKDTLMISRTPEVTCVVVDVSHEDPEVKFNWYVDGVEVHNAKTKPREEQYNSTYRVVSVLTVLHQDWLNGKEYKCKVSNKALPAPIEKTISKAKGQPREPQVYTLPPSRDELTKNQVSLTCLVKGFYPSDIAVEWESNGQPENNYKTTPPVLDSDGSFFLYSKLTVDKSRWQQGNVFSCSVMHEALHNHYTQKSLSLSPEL

- Ki (Asp1 [1]; Asp1-Fc enzyme 50 nM, fluorescent peptide substrate 0.5 uM, pH 3.8): 2.5 nM
Structure (SMILES): CC(C)[C@H](NC(=O)[C@@H](N)CCC(=O)O)C(=O)N[C@@H](CC(N)=O)C(=O)N[C@@H](Cc1ccccc1)[C@@H](O)CCC(=O)N[C@@H](C)C(=O)N[C@@H](CCC(=O)O)C(=O)N[C@@H](Cc1ccccc1)C(=O)O [compound (I)] (H-EVN[Hexanoyl(5S-NH,4S-OH,6-Ph)]AEF-OH)

- Kd (Asp1 [2]; tight binding interaction of labelled ligand with Asp1-Fc enzyme, from anisotropy values, pH 3.8): 0.075 nM
Structure (SMILES): CC(C)[C@H](NC(=O)[C@H](CCC(=O)O)NC(=O)c1ccc2c(c1)C(=O)OC21c2ccccc2Oc2cc(N)ccc21)C(=O)N[C@@H](CC(N)=O)C(=O)N[C@@H](Cc1ccccc1)[C@@H](O)CCC(=O)N[C@@H](C)C(=O)N[C@@H](CCC(=O)O)C(=O)N[C@@H](Cc1ccccc1)C(=O)O (stereo partly drawn) [ligand (II)] (X2-EVN[Hexanoyl(5S-NH,4S-OH,6-Ph)]AEF-OH)

- IC50 (Asp1 [1]; FRET cleavage assay, Asp1-Fc enzyme): 60 nM
- displacement of the fluorescent ligand (II) (Asp1 [2]; at the highest concentrations of test compound (5 uM down in twofold serial dilutions)): Complete displacement
- Ki (Asp1 [2]; competition against ligand (II) 5.0 nM, enzyme 50 nM, equilibrated 3 hrs, duplicate): 50 nM
Structure (SMILES): CC(C)C[C@H](NC(=O)[C@H](C)NC(=O)[C@@H](NC(=O)[C@@H](N)CCC(=O)O)C(C)C)[C@@H](O)CCC(=O)N[C@@H](C)C(=O)N[C@@H](CCC(=O)O)C(=O)N[C@@H](Cc1ccccc1)C(=O)O [Compound (III)] (H-EVA[X1]AEF-OH)
